Assay results as given in patent publication US4478827A, “Renin inhibitors” (The General Hospital Corporation, priority 1983, dated 1984).
≈ marks a conversion by molar mass, not a printed value. Where two headings read alike, the source gives them in different places. Where a SMILES comes first, the peptide text is derived from it. [ ]: non-standard residue; d: D form.

What was measured:
[1] = Solubility in aqueous medium; format: physicochemical
[2] = Half life in vivo (loss of radioactively labeled peptide from the circulation)
Description: The polypeptides of this invention are characterized by solubility in an aqueous medium at physiologic pH of 100-500 μm, an inhibition constant for (Ki) of between 1-50 μm and a half-life in vivo, as measured by rate of loss of radioactively labeled peptide from the circulation, of between about 1-10 minutes, especially 5-10 minutes.

[3] = molecular target: T1, renin (Homo sapiens, UniProt P00797); experiment: biochemical
T1 sequence (P00797 67-406): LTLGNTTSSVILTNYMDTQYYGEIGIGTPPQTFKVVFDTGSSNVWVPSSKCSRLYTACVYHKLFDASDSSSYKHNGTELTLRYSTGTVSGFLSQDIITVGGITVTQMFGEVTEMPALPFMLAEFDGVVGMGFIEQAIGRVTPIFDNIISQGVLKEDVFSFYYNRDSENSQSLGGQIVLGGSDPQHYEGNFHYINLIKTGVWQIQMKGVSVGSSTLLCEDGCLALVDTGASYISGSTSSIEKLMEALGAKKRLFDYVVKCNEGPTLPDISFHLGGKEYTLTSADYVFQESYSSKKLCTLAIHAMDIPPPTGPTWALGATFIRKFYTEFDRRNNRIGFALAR
Description: The peptide being tested is dissolved in 0.01 N HCl and the pH adjusted to pH 7.5 to obtain high concentrations of peptide. The peptide solution is diluted further to appropriate concentrations with 0.1 M Tris HCl-albumin.
First, to determine Km, renin (0.006 Goldblatt unit/ml) is incubated for 2 hrs. at 37° with incremental concentrations of tetradecapeptide substrate varying between 3 and 108μ M in a volume of 160 μl at pH 7.5 in 0.1M Tris HCl containing 0.5% albumin. The release of angiotensin I is determined by radioimmunoassay (Haber et al, J. Clin. Endocrinol. Metab. 29, 1349 (1969)). […] Controls for cross-relatively are performed with each experiment and appropriate corrections are made when significant, (Poulsen et al, Scand. J. Clin. Lab. Invest. 31, Suppl. No. 132, 1, (1973)).
The inhibitor constant is calculated at previously described, (Poulsen et al, Scand. J. Clin. Lab. Invest. 31, suppl. No. 132, 1, (1973)), from a weighted leastsquares fit of a Lineweaver-Burk plot. […]
Angiotensin I standards and tetradecapeptide renin substrate were obtained from Peninsula (San Mateo, CA). Angiotensin I concentrations were determined with the radio immunoassay kit purchased from New England Nuclear (Boston, MA). […]
Data from the RIA was worked up using a computer program. Data were first fitted to a Lineweaver-Burke plot and from this KI was calculated.

[4] = log P; format: physicochemical
[5] = molecular target: T1, renin; conditions: octapeptides with replaced Leu-Leu cleavage site, prior art; read-out: binding constants; cited from earlier work
[6] = pH 7.4, water, pH 7.40, read-out: Solubility (pH 7.40)

Row | solubility [1] [µM] | logP [4] | Molecule | solubility [1, 6] [µM] | life in vitro and in vivo ([2]; in vitro and in vivo) | Half life in vivo [2] [min] | Ki [3] [µM] | Ki [5] [µM]
1 |  |  | CC(C)[C@H](NC(=O)[C@H](Cc1ccccc1)NC(=O)[C@H](Cc1ccccc1)NC(=O)[C@H](Cc1cnc[nH]1)NC(=O)[C@H](Cc1ccccc1)NC(=O)[C@@H]1CCCN1C(=O)[C@H](Cc1cnc[nH]1)NC(=O)[C@@H]1CCCN1)C(=O)N[C@@H](Cc1ccc(O)cc1)C(=O)N[C@@H](CCCCN)C(=O)O [RIP, Pro-His-Pro-Pre-His-Phe-Phe-Val-Tyr-Lys] (H-PHPFHFFVYK-OH) | 840 (≈ 1110 µg/mL) | relatively short life | 3.8 | 42 | 
2 | 330 (≈ 435 µg/mL) | -1.28 | CC(C)[C@H](NC(=O)[C@H](Cc1ccccc1)NC(=O)[C@H](Cc1ccccc1)NC(=O)[C@H](Cc1c[nH]cn1)NC(=O)[C@H](Cc1ccccc1)NC(=O)[C@@H]1CCCN1C(=O)[C@H](Cc1c[nH]cn1)NC(=O)[C@@H]1CCCN1)C(=O)N[C@@H](Cc1ccc(O)cc1)C(=O)N[C@H](CCCCN)C(=O)O [D-RIP, Pro-His-Pro-Phe-His-Phe-Phe-Val-Tyr-D-Lys] (H-PHPFHFFVY[dK]-OH) | 330 (≈ 435 µg/mL) |  | 5 | 29.5 | 
3 |  |  | Leu-Tyr |  |  |  |  | 12
4 |  |  | Leu-Phe |  |  |  |  | 4
